Tested on: MPNST multicellular tumor spheroids, viability % test/control
Test: Anticancer human tumor MPNST cell line growth inhibition;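 note: spheroids exposed to agents for seven days after three days of growth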;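 for viability, T/C: luminescence signal used as surrogate for viable cell amount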
Details: for IC50: curve of first compound; for viability, T/C: stronger effect = lower value
Method in brief: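 Complex spheroids of malignant cells with endothelial cells and mesenchymal stem cells; agents alone or combined, from near clinical Cmax (or 10 microM if unknown) down in half-log steps, 0.25% DMSO final.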

[1] = second compound 1 µM, first compound 0.0316 µM
[2] = second compound 1 µM, first compound 0.1 µM
[3] = second compound 1 µM, first compound 0.316 µM
[4] = second compound 1 µM, first compound 1 µM
[5] = second compound 1 µM, first compound 3.16 µM
[6] = second compound 1 µM, first compound 10 µM
[7] = second compound 3.16 µM, first compound 0.0316 µM
[8] = second compound 3.16 µM, first compound 0.1 µM
[9] = second compound 3.16 µM, first compound 0.316 µM
[10] = second compound 3.16 µM, first compound 1 µM
[11] = second compound 3.16 µM, first compound 3.16 µM
[12] = second compound 3.16 µM, first compound 10 µM
[13] = second compound 10 µM, first compound 0.0316 µM
[14] = second compound 10 µM, first compound 0.1 µM
[15] = second compound 10 µM, first compound 0.316 µM
[16] = second compound 10 µM, first compound 1 µM
[17] = second compound 10 µM, first compound 3.16 µM
[18] = second compound 10 µM, first compound 10 µM
[19] = second compound 31.6 µM, first compound 0.0316 µM
[20] = second compound 31.6 µM, first compound 0.1 µM
[21] = second compound 31.6 µM, first compound 0.316 µM
[22] = second compound 31.6 µM, first compound 1 µM
[23] = second compound 31.6 µM, first compound 3.16 µM
[24] = second compound 31.6 µM, first compound 10 µM
[25] = second compound 100 µM, first compound 0.0316 µM
[26] = second compound 100 µM, first compound 0.1 µM
[27] = second compound 100 µM, first compound 0.316 µM
[28] = second compound 100 µM, first compound 1 µM
[29] = second compound 100 µM, first compound 3.16 µM
[30] = second compound 100 µM, first compound 10 µM

## Cc1cc(C)c(CNC(=O)c2cc(-c3ccc(CN4CCOCC4)cc3)cc3c2cnn3C2CCCC2)c(=O)[nH]1 + Cn1nnc2c(C(N)=O)ncn2c1=O
Second compound 1 µM
  IC50: > 10 µM
Second compound 3.16 µM
  IC50: > 10 µM
Second compound 10 µM
  IC50: > 10 µM
Second compound 31.6 µM
  IC50: > 10 µM
Second compound 100 µM
  IC50: > 10 µM
[1]
  viability, T/C: 95.9%
[2]
  viability, T/C: 82.8%
[3]
  viability, T/C: 101%
[4]
  viability, T/C: 92.7%
[5]
  viability, T/C: 115%
[6]
  viability, T/C: 98.6%
[7]
  viability, T/C: 141%
[8]
  viability, T/C: 96.7%
[9]
  viability, T/C: 116%
[10]
  viability, T/C: 109%
[11]
  viability, T/C: 103%
[12]
  viability, T/C: 104%
[13]
  viability, T/C: 75.3%
[14]
  viability, T/C: 90.9%
[15]
  viability, T/C: 107%
[16]
  viability, T/C: 91%
[17]
  viability, T/C: 109%
[18]
  viability, T/C: 103%
[19]
  viability, T/C: 103%
[20]
  viability, T/C: 85.8%
[21]
  viability, T/C: 111%
[22]
  viability, T/C: 107%
[23]
  viability, T/C: 103%
[24]
  viability, T/C: 99.5%
[25]
  viability, T/C: 99.1%
[26]
  viability, T/C: 97.5%
[27]
  viability, T/C: 96.9%
[28]
  viability, T/C: 109%
[29]
  viability, T/C: 97.9%
[30]
  viability, T/C: 88.4%

## Cc1sc2c(c1C)C(c1ccc(Cl)cc1)=NC(CC(=O)Nc1ccc(O)cc1)c1nnc(C)n1-2 (stereo not given) + Cn1nnc2c(C(N)=O)ncn2c1=O
Second compound 1 µM
  IC50: 1.44 µM
Second compound 3.16 µM
  IC50: 0.813 µM
Second compound 10 µM
  IC50: 1.79 µM
Second compound 31.6 µM
  IC50: > 3 µM
Second compound 100 µM
  IC50: 0.678 µM
Second compound 1 µM, first compound 0.00949 µM
  viability, T/C: 123%
Second compound 1 µM, first compound 0.03 µM
  viability, T/C: 97.7%
Second compound 1 µM, first compound 0.0949 µM
  viability, T/C: 78.7%
Second compound 1 µM, first compound 0.3 µM
  viability, T/C: 60.5%
Second compound 1 µM, first compound 0.949 µM
  viability, T/C: 51.3%
Second compound 1 µM, first compound 3 µM
  viability, T/C: 47.3%
Second compound 3.16 µM, first compound 0.00949 µM
  viability, T/C: 96.7%
Second compound 3.16 µM, first compound 0.03 µM
  viability, T/C: 125%
Second compound 3.16 µM, first compound 0.0949 µM
  viability, T/C: 92.4%
Second compound 3.16 µM, first compound 0.3 µM
  viability, T/C: 60.4%
Second compound 3.16 µM, first compound 0.949 µM
  viability, T/C: 49.7%
Second compound 3.16 µM, first compound 3 µM
  viability, T/C: 45.8%
Second compound 10 µM, first compound 0.00949 µM
  viability, T/C: 102%
Second compound 10 µM, first compound 0.03 µM
  viability, T/C: 123%
Second compound 10 µM, first compound 0.0949 µM
  viability, T/C: 93.8%
Second compound 10 µM, first compound 0.3 µM
  viability, T/C: 62.7%
Second compound 10 µM, first compound 0.949 µM
  viability, T/C: 50.7%
Second compound 10 µM, first compound 3 µM
  viability, T/C: 48.5%
Second compound 31.6 µM, first compound 0.00949 µM
  viability, T/C: 95.6%
Second compound 31.6 µM, first compound 0.03 µM
  viability, T/C: 108%
Second compound 31.6 µM, first compound 0.0949 µM
  viability, T/C: 91.7%
Second compound 31.6 µM, first compound 0.3 µM
  viability, T/C: 60%
Second compound 31.6 µM, first compound 0.949 µM
  viability, T/C: 50%
Second compound 31.6 µM, first compound 3 µM
  viability, T/C: 51.4%
Second compound 100 µM, first compound 0.00949 µM
  viability, T/C: 91.5%
Second compound 100 µM, first compound 0.03 µM
  viability, T/C: 87%
Second compound 100 µM, first compound 0.0949 µM
  viability, T/C: 83.2%
Second compound 100 µM, first compound 0.3 µM
  viability, T/C: 58.6%
Second compound 100 µM, first compound 0.949 µM
  viability, T/C: 47.3%
Second compound 100 µM, first compound 3 µM
  viability, T/C: 43.7%

## [2H]c1nc(C)nc([2H])c1-c1cc(NC[C@@H](C)c2cccc3c(C(=O)NC)ccnc23)ncn1 + Cn1nnc2c(C(N)=O)ncn2c1=O
Second compound 1 µM
  IC50: > 10 µM
Second compound 3.16 µM
  IC50: > 10 µM
Second compound 10 µM
  IC50: > 10 µM
Second compound 31.6 µM
  IC50: > 10 µM
Second compound 100 µM
  IC50: > 10 µM
[1]
  viability, T/C: 86.5%
[2]
  viability, T/C: 86.8%
[3]
  viability, T/C: 93.2%
[4]
  viability, T/C: 101%
[5]
  viability, T/C: 97.3%
[6]
  viability, T/C: 104%
[7]
  viability, T/C: 114%
[8]
  viability, T/C: 100%
[9]
  viability, T/C: 76.3%
[10]
  viability, T/C: 91%
[11]
  viability, T/C: 89.8%
[12]
  viability, T/C: 104%
[13]
  viability, T/C: 81.1%
[14]
  viability, T/C: 94.9%
[15]
  viability, T/C: 108%
[16]
  viability, T/C: 116%
[17]
  viability, T/C: 94.1%
[18]
  viability, T/C: 108%
[19]
  viability, T/C: 85%
[20]
  viability, T/C: 85.9%
[21]
  viability, T/C: 79.5%
[22]
  viability, T/C: 96.8%
[23]
  viability, T/C: 78.7%
[24]
  viability, T/C: 101%
[25]
  viability, T/C: 89.5%
[26]
  viability, T/C: 111%
[27]
  viability, T/C: 113%
[28]
  viability, T/C: 81.1%
[29]
  viability, T/C: 107%
[30]
  viability, T/C: 89.9%
